Test system: flank organ
Test: topical antiandrogenic activity test (hamster flank organ, Voigt and Hsia)
Type: in vivo, hamsters
Settings: 21 days
Procedure: The test was carried out on sexually immature female hamsters aged 6-8 weeks and weighing 65-90 grams.
At the beginning of the tests, the back of each animal was shaved to evidence the respective flank organ bilaterally. Animals were then subdivided into homogeneous groups and treated daily for 21 consecutive days. The tested steroids were dissolved at concentrations ranging from 100 to 400 micrograms in 50 microliters of an acetone solution containing 4 micrograms of testosterone propionate (TP) or 4 micrograms of dihydrotestosterone (DHT). 50 microliters of the solutions were applied to the right flank organ, while the contralateral organ used as individual control received only acetone (50 microliters). Control groups received TP or DHT alone, following the same procedures.
At the end of the tests, the animals were killed under ether anesthesia and the whole skine of the back was taken. The area of both flank organs was measured, separately, with transillumination. The mean differences between areas treated with the tested steroids and those treated with the carrier alone were calculated for each group, and said mean differences were compared, as inhibition percentages, to the mean differences between the areas in the control groups treated with either TP or DHT.

[1] = androgen alone (control group), 4 μg daily, topical
[2] = DHT 4 μg + compound 400 μg daily, topical on right flank organ, female hamsters
[3] = TP 4 μg + compound 400 μg daily, topical on right flank organ, female hamsters
[4] = versus DHT control, DHT 4 μg + compound 400 μg daily, topical
[5] = versus TP control, TP 4 μg + compound 400 μg daily, topical

Row | Structure (SMILES) | Mean difference of the areas [1] [mm^2] | Mean difference of the areas [2] [mm^2] | Mean difference of the areas [3] [mm^2] | % inhibition [4] [%] | % inhibition [5] [%]
1 | CCC(=O)O[C@H]1CC[C@H]2[C@@H]3CCC4=CC(=O)CC[C@]4(C)[C@H]3CC[C@]12C [TP, testosterone propionate, reference compound] | 22.7 ± 2.3 |  |  |  | 
2 | CCCC(=O)OCC(=O)[C@@]1(OC(=O)CCC)CC[C@H]2[C@@H]3CCC4=CC(=O)CC[C@]4(C)C3=CC[C@@]21C [Ex. 1, 17α,21-dibutanoyl-pregna-4,9-diene-3,20-dione] |  | 3.7 ± 0.7 | 2.4 ± 1.1 | 82 | 89
3 | CCC(=O)O[C@]1(C(=O)CO)CC[C@H]2[C@@H]3CCC4=CC(=O)CC[C@]4(C)C3=CC[C@@]21C [Compound A, 17α-propionyl-21-hydroxy-pregna-4,9-diene-3,20-dione] |  | 9.7 ± 1.8 | 3.7 ± 1.1 | 53 | 84
4 | CCCC(=O)OCC(=O)[C@@]1(O)CC[C@H]2[C@@H]3CCC4=CC(=O)CC[C@]4(C)C3=CC[C@@]21C [Ex. 2, 17α-hydroxy-21-butanoyl-pregna-4,9-diene-3,20-dione] |  | 4.1 ± 0.5 | 3.3 ± 1.2 | 80 | 85
5 | C[C@]12CCC(=O)C[C@@H]1CC[C@@H]1[C@@H]2CC[C@]2(C)[C@@H](O)CC[C@@H]12 [DHT, dihydrotestosterone, reference compound] | 20.8 ± 2.5 |  |  |  | 
